In ChEMBL document CHEMBL5120810, “Toporosides A and B, Cyclopentenyl-Containing ω-Glycosylated Fatty Acid Amides, and Toporosides C and D from the Northwestern Pacific Marine Sponge Stelodoryx toporoki” (2022):

system: H9c2; experiment: Cardioprotective activity against TNF-alpha induced rat H9c2 cells assessed as increase in cell viability at 2.5 uM pretreated with TNF-alpha for 1 hr followed by compound addition measured after 48 hrs by MTT assay relative to control; assay type: functional

Compared with `CO[C@@H](CC/C=C\CCCCC(=O)CCCCC(=O)CCCCCCCCCCO[C@@H]1O[C@H](C(=O)O)[C@@H](O)[C@H](O)[C@H]1O)C(=O)NCCc1ccc(O)c(O)c1`, `CO[C@@H](CC/C=C\CCCCC(=O)CCCCC(=O)CC/C=C\CCCCCCCCO[C@@H]1O[C@H](C(=O)O)[C@@H](O)[C@H](O)[C@H]1O)C(=O)NCCc1ccc(O)c(O)c1` is higher in Activity: 18% for the first, 25% for the second.

`CO[C@@H](CC/C=C\CCCCC(=O)C1=C(CC/C=C\CCCCCCCCO[C@@H]2O[C@H](C(=O)O)[C@@H](O)[C@H](O)[C@H]2O)CCC1)C(=O)NCCc1ccc(O)c(O)c1` showed an Activity of 23%.
